Source: US20240409558A1, “IRREVERSIBLE INHIBITORS OF KRAS” (BIOMEA FUSION, INC., priority 2021, published 2024)
Read-outs that look alike come from different tables or passages of the source.

Test system: human KRAS G12C mutated cell line MIA PaCa-2
Assay: Inhibition of proliferation of MIA PaCa-2 cells (CellTiter-Glo, 7 day)
Type: cell-based
Conditions: 168 h, mean, read-out: MIA PaCa-2 IC50 (μM) 7 day Mean
Method in brief: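 MIA PaCa-2 cells (RPMI-1640, 10% FBS) seeded at about 1000 cells/well; eight compound concentrations in duplicate added 2 h later, with media and compound refreshed on day 3. ATP-luminescence viability read on day 7 by CellTiter-Glo; % inhibition relative to 0.2% DMSO control.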

Row | SMILES | IC50 (Table 4, 7 day) [µM] | IC50 (Table 3, 7 day) [µM]
1 | Oc1cccc(Cl)c1-c1cc(OCC23CCCN2C[C@H](F)C3)c2c(N3CCNCC34CC4)nc(OC[C@@]34CCCN3C[C@H](F)C4)nc2c1 (stereo partly drawn) [Compound 420, 3-chloro-2-[4-(4,7-diazaspiro[2.5]octan-4-yl)-5-[[(2R)-2-fluoro-1,2,3,5,6,7-hexahydropyrrolizin-8-yl]methoxy]-2-[[(2R,8S)-2-fluoro-1,2,3,5,6,7-hexahydropyrrolizin-8-yl]methoxy]quinazolin-7-yl]phenol] | > 1 | –
2 | Oc1cc(Cl)c(C2CC2)c(-c2cnc3c(N4C[C@H]5C[C@@H]4CN5)nc(OC[C@@]45CCCN4C[C@H](F)C5)nc3c2)c1 [Compound 406, 3-chloro-4-cyclopropyl-5-[4-[(1R,4R)-2,5-diazabicyclo[2.2.1]heptan-2-yl]-2-[[(2R,8S)-2-fluoro-1,2,3,5,6,7-hexahydropyrrolizin-8-yl]methoxy]pyrido[3,2-d]pyrimidin-7-yl]phenol] | > 1 | –
3 | C=CC(=O)N1C2CCC1CN(c1nc(OC[C@@]34CCCN3C[C@H](F)C4)nc3c(F)c(-c4c(C)c(Cl)cc5[nH]ncc45)ncc13)C2 [Compound 304, 1-[3-[7-(6-chloro-5-methyl-1H-indazol-4-yl)-8-fluoro-2-[[(2R,8S)-2-fluoro-1,2,3,5,6,7-hexahydropyrrolizin-8-yl]methoxy]pyrido[4,3-d]pyrimidin-4-yl]-3,8-diazabicyclo[3.2.1]octan-8-yl]prop-2-en-1-one] | – | 0.017
4 | Oc1cc(Cl)c(C2CC2)c(-c2ccc3c(N4CC5CCC(C4)N5)cc(OC[C@@]45CCCN4C[C@H](F)C5)nc3c2F)c1 [Compound 429, 3-chloro-4-cyclopropyl-5-[4-(3,8-diazabicyclo[3.2.1]octan-3-yl)-8-fluoro-2-[[(2R,8S)-2-fluoro-1,2,3,5,6,7-hexahydropyrrolizin-8-y1]methoxy]-7-quinolyl]phenol] | > 1 | –
5 | C=CC(=O)N1C2CCC1CN(c1nc(OC[C@@]34CCCN3C[C@H](F)C4)nc3cc(-c4cccc5cccc(Cl)c45)ccc13)C2 [Compound 324, 1-[3-[7-(8-chloro-1-naphthyl)-2-[[(2R,8S)-2-fluoro-1,2,3,5,6,7-hexahydropyrrolizin-8-yl]methoxy]quinazolin-4-y1]-3,8-diazabicyclo[3.2.1]octan-8-yl]prop-2-en-1-one] | – | > 1
6 | Oc1cc(Cl)c(C2CC2)c(-c2ccc3c(N4CCNC5(CC5)C4)nc(OC[C@@]45CCCN4C[C@H](F)C5)nc3c2F)c1 [Compound 409, 3-chloro-4-cyclopropyl-5-[4-(4,7-diazaspiro[2.5]octan-7-yl)-8-fluoro-2-[[(2R,8S)-2-fluoro-1,2,3,5,6,7-hexahydropyrrolizin-8-yl]methoxy]quinazolin-7-yl]phenol] | > 1 | –

Continued, in another order:

Row | IC50 (Table 4, 7 day) [µM] | SMILES | IC50 (Table 3, 7 day) [µM]
7 | 8.87 | CC1(c2nc(OC[C@@]34CCCN3C[C@H](F)C4)nc3c(F)c(-c4cc(O)cc(Cl)c4C4CC4)ncc23)CCNCC1 [Compound 442, 3-chloro-4-cyclopropyl-5-[8-fluoro-2-[[(2R,8S)-2-fluoro-1,2,3,5,6,7-hexahydropyrrolizin-8-yl]methoxy]-4-(4-methyl-4-piperidyl)pyrido[4,3-d]pyrimidin-7-yl]phenol] | –
8 | 0.607 | Oc1cc(Cl)c(C2CC2)c(-c2ccc3c(N4CCNCC45CC5)nc(OC[C@@]45CCCN4C[C@H](F)C5)nc3c2F)c1 [Compound 425, 3-chloro-4-cyclopropyl-5-[4-(4,7-diazaspiro[2.5]octan-4-yl)-8-fluoro-2-[[(2R,8S)-2-fluoro-1,2,3,5,6,7-hexahydropyrrolizin-8-yl]methoxy]quinazolin-7-y1]phenol] | –
